Patent publication US20230212316A1, “IgG EPITOPE PEPTIDES THAT BIND […] AND METHODS OF USE THEREOF” (priority 2021, published 2023)
Where no end group is shown, it is not given here. [ ]: non-standard residue; d: D form. Cit = NC(=O)NCCC[C@H](N)C(=O)O

Legend:
[1] = system: serum IgM (rheumatoid factors); test: Peptide ELISA: serum IgM binding to biotinylated IgG1-derived peptides; design: species or system human; conditions: for IgM that binds to the peptide: COVID-19 convalescent subjects versus RA+, RA−, smokers and naïve controls, FIG. 8A; for IgM binding to the peptide: Sjogren's disease subjects previously RF positive versus matched controls, FIG. 9B
[2] = system: serum IgG (rheumatoid factors); test: Peptide ELISA: serum IgG binding to biotinylated IgG1-derived peptides; design: species or system human; conditions: for IgG binding to the peptide: Sjogren's disease subjects previously RF positive versus matched controls, FIG. 9B; for Serum IgG binding to the peptide compared to controls: FIG. 3
[3] = system: plasma IgM; test: Pre-clinical RA peptide ELISA: plasma IgM binding to IgG1 peptides; design: species or system human; conditions: CCP− controls and anti-CCP+ subjects who do not develop RA imminently compared to anti-CCP+ subjects who do develop RA imminently; FIG. 10A
Excerpt: Subjects were ≥18 years old.

[4] = system: plasma IgG; conditions: anti-CCP+ subjects who later develop RA compared to anti-CCP− subjects and CCP+ subjects who do not develop RA; FIG. 10B
Excerpt: Human Subjects: Human subjects research was approved by the University of Wisconsin (UW) Institutional Review Board and complied with the Helsinki Declaration. Most sera were obtained from the UW Rheumatology Biorepository, which includes rheumatoid arthritis, systemic lupus erythematosus, Sjögren's disease (SjD), spondyloarthropathy, and controls (including current and never smokers) collected prior to 2019. Subjects were ≥18 years old. All subjects with rheumatic disease were confirmed to have that disease by a rheumatologist. […] Controls were matched by age and gender and carried none of the following diagnoses: RA, lupus, Sjögren's disease, scleroderma, psoriasis, psoriatic arthritis, ankylosing spondylitis, reactive arthritis, ulcerative colitis, Crohn's disease, multiple sclerosis, type I diabetes, hematologic malignancy, or past COVID-19.
Enzyme Linked Immunosorbent Assay (ELISA): For peptide ELISA, plates were coated with 5 μg/ml streptavidin (Thermo Fisher Scientific) for 1 hour at room temperature (RT) or overnight at 4 degrees Celsius, washed with PBS, then coated with 0.1-1.0 μM of peptide conjugated to biotin at the C terminus (Biomatik, Kitchener, Canada or Peptide2.0, Chantilly, Va., USA) for 1 hour at RT. For IgG Fc ELISA, plates were coated overnight at 4° C. with 10 μg/ml IgG Fc in PBS in 4 forms: treated with PADs in buffer, treated with 0.1M KOCN in dH2O, diluted in citrullination buffer, diluted in dH2O. After washing with PBS, plates were blocked for 1 hour to overnight at RT with 5% non-fat dried milk in 0.2% Tween 20 in PBS (serum ELISA block) or 1% BSA in PBS (mAMPA ELISA block without 0.1% Tween 20). Sera diluted 1:100, 1:200 or 1:2000 in serum ELISA block or 1 μg/m1mAMPAs in mAMPA ELISA block were applied to plates overnight at 4° C. […] After one hour at RT, plates were washed, developed with 3,3′,5,5′-tetramethylbenzidine (Thermo Fisher Scientific), then stopped with 0.18 M sulfuric acid. Plates were read on a FilterMAX F3 (Molecular Devices, San Jose, USA) at 450 and 562, with 562 values subtracted from 450 values for each sample. For each sample, absorbance values for uncoated wells were subtracted from peptide- or Fc-coated wells to exclude non-specific binding, and absorbance values for PAD-containing buffer were subtracted from wells coated with PAD-treated IgG Fc to exclude anti-PAD reactivity.

[5] = COVID-19 convalescent subjects, 5 weeks post-symptom resolution (n=121)
[6] = Control (non-smoking COVID-19 naïve controls without autoimmune disease, n=54)
[7] = RA+ (seropositive rheumatoid arthritis subjects, n=31)
[8] = RA− (seronegative rheumatoid arthritis subjects, n=26)

Sequence	IgM that binds to the peptide [1]	Percent of subjects that would be considered seropositive for IgM antibodies against the peptide using a preliminary cutoff [1, 5] [%]	Percent of subjects that would be considered seropositive for IgM antibodies against the peptide using a preliminary cutoff [1, 6] [%]	Percent of subjects that would be considered seropositive for IgM antibodies against the peptide using a preliminary cutoff [1, 7] [%]	Percent of subjects that would be considered seropositive for IgM antibodies against the peptide using a preliminary cutoff [1, 8] [%]	IgM binding to the peptide [1]	Percent of subjects that would be considered seropositive for IgM antibodies against the peptide using a preliminary cutoff ([1]; Smoker (current smokers, n=10)) [%]	IgG binding to the peptide [2]	Plasma IgG that binds to the peptide [4]	other results
RDELTKNQVSLTCLVK (IgG epitope) [Peptide P01857-238, native IgG1 peptide, position 238]	increased	44	0	6	4	not bound	0	not bound	–	–
LYSKLTVDKSBWQQGNVFS (LYSKLTVDKS[Cit]WQQGNVFS) [Peptide P01857-289B, citrulline (B)-containing IgG1 peptide, position 289]	–	–	–	–	–	–	–	–	–	Plasma IgM that binds to the peptide [3]: higher
LAPSSJSTSGGTAALGC [Peptide P01857-11J]	–	–	–	–	–	–	–	–	higher	–
KDTLMISRTPEVTCVV (IgG epitope) [Peptide P01857-131, native IgG1 peptide, position 131]	increased	45	2	0	0	not bound	0	not bound	–	–
CPPCPAPELLGGPSV (IgG epitope) [Peptide P01857-109, native peptide from the hinge region of IgG1 starting at position 109]	–	–	–	–	–	–	–	–	–	Serum IgG binding to the peptide compared to controls ([2]; anti-CCP+RF+ RA): trend towards increased binding; Serum IgG binding to the peptide compared to controls ([2]; anti-CCP-RF− RA): no increased binding; Serum IgG binding to the peptide compared to controls ([2]; anti-SSA+ Sjögren's disease): significantly increased binding; Serum IgG binding to the peptide compared to controls ([2]; lupus): but not lupus or spondyloarthropathy serum IgG, had significantly increased binding; Serum IgG binding to the peptide compared to controls ([2]; spondyloarthropathy): but not lupus or spondyloarthropathy serum IgG, had significantly increased binding
DKTHTCPPCPAPELLG (IgG epitope) [Peptide P01857-104, native IgG1 hinge peptide, position 104]	–	14	2	23	12	bound	20	bound	–	–
YJCJVSNJALPAP [Peptide P01857-202J]	–	–	–	–	–	–	–	–	higher	–
LYSJLTVDJSRWQQGNVFS [Peptide P01857-289J]	–	–	–	–	–	–	–	–	higher	–
TYICNVNHJPSNTJVDJJVEPJSC [Peptide P01857-80J]	–	–	–	–	–	–	–	–	higher	–
LTVDKSRWQQGNVFSC (IgG epitope) [Peptide P01857-293, native IgG1 peptide, position 293]	increased	12	0	3	0	not bound	0	not bound	–	IgG that binds to the peptide ([2]; COVID-19 convalescent subjects versus RA+, RA−, smokers and naïve controls, FIG. 8B): increased
